{"source": "patent US10111901B2", "about": "“Beta-glucan in combination with anti-cancer agents affecting the tumor microenvironment” (Biothera, Inc., priority 2014, dated 2018)", "key": {"[1]": {"tested_on": "CD33+ MDSC", "assay": "MDSC in peripheral blood of a case study subject treated with IMPRIME PGG", "format": "in vivo, human", "conditions": "post-infusion, cycle 8, day 1; within hours", "text": "Blood was drawn at various times from a case study subject undergoing treatment with IMPRIME PGG and analyzed for the presence of MDSC. The first blood draw was done pre-infusion, cycle 8, day 1. […] A second blood draw was done post-infusion, cycle 8, day 1. […] The last blood sample was drawn pre-infusion, cycle 8, day 15. The CD33^+ MDSC are again present in the peripheral blood."}, "[2]": {"tested_on": "M2a macrophages", "assay": "Flow cytometry of CD163 and CD86 on activated M2a macrophages cultured in IL-4", "format": "cell-based, human", "conditions": "M2a macrophages cultured in IL-4, immunosuppressive conditions", "protocol": "Steps for an alternative method for in vitro culture and characterization of human macrophages that includes activation of M1 and M2 macrophages (designated M1a and M2a macrophages) are outlined below. This methodology was used in the next series of experiments.\n(§1) Phenotypic and functional evaluation of β-glucan-treated M2a and β-glucan-treated M2 macrophages in the presence of immunosuppressive cytokines was carried out. M2 or M2a macrophages were prepared as described above. On day 3, tumor-conditioned medium (TCM) was added M2 macrophage cultures to account for 70% of the volume of the culture and then evaluated for CD163 expression and functional activity on day 6. […] M2a macrophages were cultured in IL-4 as described above.\n(§2) The β-glucan-treated M2a macrophages cultured in IL-4 and M2 macrophages cultured in TCM were first evaluated for CD163 and CD86 expression. CD163 and CD86 were evaluated by flow cytometry and median MFI was calculated for isotype control staining and surface antigen staining and the results are shown in Table 5."}, "[3]": {"tested_on": "IL-4", "assay": "IL-4 analysis of co-culture supernatants", "format": "cell-based, human", "conditions": "co-cultures of β-glucan-treated M2 macrophages and CD4 T cells", "protocol": "CD14^+ monocytes from human whole blood were enriched using Ficoll gradient and magnetic bead separation. Enriched monocytes (5×10^5 cells per mL) were then cultured in either M1-polarizing (XVivo 10 media (Lonza Group) supplemented with 5% autologous serum and 100 ng/mL recombinant human granulocyte macrophage colony-stimulating factor (rhGM-CSF) (R&D Systems) or M2-polarizing (XVivo 10 media supplemented with 10% autologous serum and 50 ng/mL recombinant human macrophage colony-stimulating factor (rhM-CSF) (R&D Systems) conditions for 6 days. In experiments performed to evaluate the effect of β-glucan, whole blood was first incubated with vehicle (sodium citrate buffer) or 25 μg/mL soluble β-glucan for 2 hours at 37° C. and then the monocytes were isolated and differentiated. Morphology was checked before macrophages were harvested for phenotypic analysis. […] T cell proliferation was measured at the end of the experiment (day 9-day 11) by flow cytometry, and results are graphically shown as CFSE-dilution peaks. […] Quantitative results were reported as the Division Index (the average number of cell divisions a population underwent) calculated for each of the triplicate wells in each of the culture conditions. […]\nModulation of IFN-γ and IL-4 production of vehicle- and β-glucan-treated M2 macrophages was then evaluated. […]"}, "[4]": {"tested_on": "CD4 and CD8 T cells", "assay": "T cell proliferation and activation of PBMCs cultured in plasma from treated whole blood", "format": "cell-based, human", "protocol": "To obtain plasma, whole blood was treated for 6 hours with 25 μg/mL β-glucan or vehicle, spun down and the plasma removed. 50,000 autologous CFSE-labeled PBMCs were cultured in the treated plasma for 3 days in the presence of 50,000 T cell activating CD3/28 beads (DYNABEADS Human T-Activator CD3/CD28 for T Cell Expansion and Activation). At the end of the culture, PBMCs were stained with CD4 and CD8 and T cell proliferation was measured by CFSE dilution.\nNext, to show the effect of soluble β-glucan on CD4 and CD8 cell activation, the T cell proliferation assay described above was again carried out. At day 3, however, the cells were stained for markers of activation including Granzyme B production and CD25 upregulation.\nTo determine whether the enhancement of T cell proliferation by β-glucan is direct or indirect, T cell proliferation assays were carried out as described above except the plasma from untreated (vehicle) whole blood was then either treated with β-glucan or vehicle prior to adding to autologous PBMCs. CFSE dilution was quantitated by Division Index using FLOWJO software and plotted as fold change over vehicle control. The results shown in FIG. 5C indicate that β-glucan's enhanced effect is due to indirect mechanisms."}, "[5]": {"tested_on": "M2 macrophages", "assay": "Flow cytometry of M1/M2-specific markers on M2 macrophages derived from vehicle- or β-glucan-treated whole blood", "format": "cell-based, human", "protocol": "CD14^+ monocytes from human whole blood were enriched using Ficoll gradient and magnetic bead separation. Enriched monocytes (5×10^5 cells per mL) were then cultured in either M1-polarizing (XVivo 10 media (Lonza Group) supplemented with 5% autologous serum and 100 ng/mL recombinant human granulocyte macrophage colony-stimulating factor (rhGM-CSF) (R&D Systems) or M2-polarizing (XVivo 10 media supplemented with 10% autologous serum and 50 ng/mL recombinant human macrophage colony-stimulating factor (rhM-CSF) (R&D Systems) conditions for 6 days. In experiments performed to evaluate the effect of β-glucan, whole blood was first incubated with vehicle (sodium citrate buffer) or 25 μg/mL soluble β-glucan for 2 hours at 37° C. and then the monocytes were isolated and differentiated. Morphology was checked before macrophages were harvested for phenotypic analysis. Culture medium of the day 6 macrophage culture (MCM) was collected, spun down to remove contaminated cell pellet and then frozen down for subsequent cytokine analysis by ELISA or used to setup a co-culture with CD3 & CD28-stimulated CD4 T cells (MCM-CD4 T) for evaluation of either surface markers or CD4 T cell proliferation. The macrophages were used to setup a co-culture with CD3 & CD28- or CD3 only-stimulated CD4 T cells (Mac-CD4 T) on day 6 for evaluation of either surface marker modulation or effect on CD4 T cell proliferation. For Mac-CD4 T cell proliferation study, M1 or M2 macrophages were cultured with CD3 & CD28- or CD3 only-stimulated, CFSE-labeled, autologous CD4 T cells at a 1:10 ratio. T cell proliferation was measured at the end of the experiment (day 9-day 11) by flow cytometry, and results are graphically shown as CFSE-dilution peaks. The assessment of CD3-only stimulated T cells was always done on day 11. Quantitative results were reported as the Division Index (the average number of cell divisions a population underwent) calculated for each of the triplicate wells in each of the culture conditions. Culture supernatants of Mac-CD4 T co-cultures were collected for subsequent cytokine analysis.\nM1 and M2 macrophages from vehicle- or β-glucan-treated whole blood were prepared as described above. […] In addition, surface expression of CD86 was enhanced as well as both protein and mRNA levels of PD-L1 (FIG. 2B).\nExpression of a panel of markers was evaluated by flow cytometry for vehicle- and β-glucan-treated, high binder-derived M1 and M2 macrophages (CD163 was evaluated twice).\nCD163 and CD86 were evaluated by flow cytometry for vehicle- and β-glucan-treated, low binder-derived M1 and M2 macrophages.\nas §1, §2\nMonocytes or M2 macrophages were prepared as described above. On day 3, TCM was added to account for 70% of the volume of the culture and then evaluated for PD-L1 expression with TCM and then again when co-cultured with CD4 T cells."}, "[6]": {"conditions": "M2 macrophages cultured in TCM (70% of volume, from day 3), immunosuppressive conditions"}, "[7]": {"conditions": "M2 macrophages, high binder, 25 μg/mL"}}}
{"substance": "β(1,6)-[poly-(1,3)-D-glucopyranosyl]-poly-β(1,3)-D-glucopyranose [β-glucan]", "values": [{"measurement": "CD33+ MDSC in peripheral blood", "setting": "[1]", "value": "transiently disappear"}, {"measurement": "CD86 median MFI", "setting": "[2]", "value": 4572}, {"measurement": "CD163 median MFI", "setting": "[2]", "value": 309}, {"measurement": "production of immunosuppressive cytokine IL-4", "setting": "[3]", "value": "no change"}, {"measurement": "CD4 and CD8 proliferation (CFSE dilution)", "setting": "[4]; plasma from whole blood treated 6 hours with 25 μg/mL β-glucan, vs vehicle", "value": "significant enhancement"}, {"measurement": "CD4 and CD8 cell activation (Granzyme B production, CD25 upregulation)", "setting": "[4]; β-glucan-treated plasma, day 3", "value": "enhances CD4 and CD8 cell activation"}, {"measurement": "CD86 median MFI", "setting": "[5]; [6]", "value": 2697}, {"measurement": "CD163 median MFI", "setting": "[5]; [6]", "value": 1112}, {"measurement": "CD86 median MFI", "setting": "[5]; [7]", "value": 2953}, {"measurement": "CD163 (1) median MFI", "setting": "[5]; [7]", "value": 759}, {"measurement": "CD163 (2) median MFI", "setting": "[5]; [7]", "value": 1153}, {"measurement": "CD206 median MFI", "setting": "[5]; [7]", "value": 1056}, {"measurement": "CD209 median MFI", "setting": "[5]; [7]", "value": 801}, {"measurement": "CD274 (PD-L1) median MFI", "setting": "[5]; [7]", "value": 4427}, {"measurement": "HLA-DR median MFI", "setting": "[5]; [7]", "value": 1007}, {"measurement": "CD86 median MFI", "setting": "[5]; M2 macrophages, low binder", "value": 2284}, {"measurement": "CD163 median MFI", "setting": "[5]; M2 macrophages, low binder", "value": 3315}, {"measurement": "phenotypic markers on monocyte-derived macrophages", "setting": "[5]; low binders, M1/M2 polarizing conditions (data not shown)", "value": "did not modulate"}, {"measurement": "surface expression of CD86", "setting": "[5]; β-glucan-treated M2 macrophages", "value": "enhanced"}, {"measurement": "surface expression of PD-L1", "setting": "[5]; β-glucan-treated M2 macrophages cultured in TCM", "value": "higher surface expression"}, {"measurement": "HLA-DR expression", "setting": "[5]; β-glucan-treated M2 macrophages cultured in TCM (data not shown)", "value": "higher"}, {"measurement": "PD-L1 expression", "setting": "[5]; β-glucan-treated M2 macrophages in TCM co-cultured with CD4 T cells", "value": "increased expression"}, {"measurement": "mean fluorescence intensity (MFI) of CD163", "setting": "[5]; β-glucan-treated M2 macrophages, FIG. 2A", "value": "downmodulated"}, {"measurement": "protein and mRNA levels of PD-L1", "setting": "[5]; β-glucan-treated M2 macrophages, FIG. 2B", "value": "enhanced"}]}
